In patent publication US10676829B2, “Corrosion inhibition composition for pipelines, process of elaboration and synthesis” (INSTITUTO MEXICANO DEL PETROLEO, priority 2013, dated 2020):

Experiment: Corrosion inhibition efficiency by electrochemical impedance spectroscopy (EIS), three-electrode cell
Details: 40° C., 3 hours
Protocol: Evaluation Using Electrochemical Impedance Spectroscopy (EIS)
The evaluation of corrosion inhibiting properties of the individual structures and binary compositions was carried out in a conventional electrochemical cell (E) with a three electrode arrangement as the one shown in FIG. 1. This cell allows maintaining stirring and constant temperature during development of measurement.
The inhibiting formulations to be evaluated are added in the desired concentration in the test solution (D), whereas a stirring of 2000 rpm and a temperature of 40° C. are maintained. […] The system is maintained under stirring and constant temperature for 3 hours.
After 3 hours, the electrochemical impedance spectrum is obtained in a range of 10 kHz and 10 mHz frequency and the resistance related to corrosion and together with that obtained in an identical experiment but only with the test solution was obtained from this spectrum; the corrosion inhibition efficiency was calculated.

[1] = test water SP1, concentration 50 mg/L
[2] = test water SP1, concentration 500 mg/L
[3] = test water SP1, concentration 2500 mg/L

Compound	Inhibition efficiency % [1] [%]	Inhibition efficiency % [2] [%]	Inhibition efficiency % [3] [%]
CCCCCCCCCCCCCCN=Cc1c[nH]cn1 [IMC14, N-[1H-imidazole-(4-methylidene)]-tetradecane-1-amine]	19.8	78.9	98.0
CCCCCCNCn1nnc2ccccc21 [BZC6, N-(1H-benzotriazole-1-methyl)-hexane-1-amine]	18.2	35.3	73.7
CCCCn1cc[n+](C)c1.[Br-] [MIMC4, 1-butyl-3-methylimidazolium bromide]	15.2	61.9	76.0
CCCCCCCCCCCCN=Cc1c[nH]cn1 [IMC12, N-[1H-imidazole-(4-methylidene)]-dodecane-1-amine]	23.1	80.9	95.4
